The source of these data is PubChem BioAssay AID330 (DTP/NCI, 2004).

In this test the test system is P388 leukemia ip, CD2F1 mice, survival T/C. The experiment in a line: NCI In Vivo Anticancer Drug Screen. Data for tumor model P388 Leukemia (intraperitoneal) in CD2F1 (CDF1) mice. The conditions noted are these: endpoint: median survival time, higher = longer survival. The method, boiled down: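 Mice carrying the transplanted tumor received test compound or vehicle. Survival was recorded in each group, and the value is the treated-group measurement divided by that of the vehicle-treated control group.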

Setting [1] is: dose: 50.0 mg/kg/injection, schedule: Q01DX009 (ip), vehicle: saline.
Setting [2] is: dose: 100.0 mg/kg/injection, schedule: Q01DX009 (ip), vehicle: saline.
Where [3] appears, read: dose: 200.0 mg/kg/injection, schedule: Q01DX009 (ip), vehicle: saline.
[4] abbreviates: dose: 60.0 mg/kg/injection, schedule: Q01DX005 (ip), vehicle: saline with Tween-80.
Setting [5] is: dose: 120.0 mg/kg/injection, schedule: Q01DX005 (ip), vehicle: saline with Tween-80.
[6] abbreviates: dose: 240.0 mg/kg/injection, schedule: Q01DX005 (ip), vehicle: saline with Tween-80.

Molecules are shown by their SMILES. Several values for one entry are separate records, joined by “and”; a condition that tells them apart may be missing. Equal entries are not always repeated. Inconclusive results and toxic doses are left out.

`CC1=CCC2C(C)(C)CCCC2(C)C1CCC(C)(O)C(O)CO` (stereo unspecified): the T/C is, setting by setting: (dose: 25.0 mg/kg/injection, schedule: Q01DX005 (ip), vehicle: Klucel + Tween-80) 98 % of control; (dose: 50.0 mg/kg/injection, schedule: Q01DX005 (ip), vehicle: Klucel + Tween-80) 101 % of control; (dose: 100.0 mg/kg/injection, schedule: Q01DX005 (ip), vehicle: Klucel + Tween-80) 98 % of control; (dose: 200.0 mg/kg/injection, schedule: Q01DX005 (ip), vehicle: Klucel + Tween-80) 100 % of control.

Regarding `CCCCCCC1([N+](=O)[O-])CN(C)CC2CCCCN2C1` (stereo unspecified), the T/C reads like this: (dose: 100.0 mg/kg/injection, schedule: Q04DX002 (ip), vehicle: saline) 109 % of control; (dose: 200.0 mg/kg/injection, schedule: Q04DX002 (ip), vehicle: saline) 97 % of control.

Turning to `CC(=O)Nc1ccc2c(Nc3ccc(NS(C)(=O)=O)cc3)c3ccccc3nc2c1`, the T/C was 151 % of control (dose: 0.09 mg/kg/injection, schedule: Q01DX009 (ip), vehicle: saline); 156 % of control (dose: 0.09 mg/kg/injection, schedule: Q04DX003 (ip), vehicle: saline); 151 % of control (dose: 0.13 mg/kg/injection, schedule: Q01DX009 (ip), vehicle: saline); 175 % of control (dose: 0.13 mg/kg/injection, schedule: Q04DX003 (ip), vehicle: saline); 164 % of control (dose: 0.2 mg/kg/injection, schedule: Q01DX009 (ip), vehicle: saline); 166 % of control (dose: 0.2 mg/kg/injection, schedule: Q04DX003 (ip), vehicle: saline). Further, the T/C runs as follows: (dose: 0.29 mg/kg/injection, schedule: Q01DX009 (ip), vehicle: saline) 190 % of control; (dose: 0.3 mg/kg/injection, schedule: Q01DX009 (ip), vehicle: saline) 169 % of control; (dose: 0.3 mg/kg/injection, schedule: Q04DX003 (ip), vehicle: saline) 175 % of control; (dose: 0.44 mg/kg/injection, schedule: Q01DX009 (ip), vehicle: saline) 193 % of control; (dose: 0.66 mg/kg/injection, schedule: Q01DX009 (ip), vehicle: saline) 193 % of control; (dose: 1.0 mg/kg/injection, schedule: Q01DX009 (ip), vehicle: saline) 200 % of control. Besides, the T/C is 155 % of control (dose: 1.0 mg/kg/injection, schedule: Q04DX003 (ip), vehicle: saline); 177 % of control (dose: 2.2 mg/kg/injection, schedule: Q04DX003 (ip), vehicle: saline); 186 % of control (dose: 3.3 mg/kg/injection, schedule: Q04DX003 (ip), vehicle: saline); 227 % of control (dose: 5.0 mg/kg/injection, schedule: Q04DX003 (ip), vehicle: saline); 245 % of control (dose: 7.5 mg/kg/injection, schedule: Q04DX003 (ip), vehicle: saline).

For the compound `O=C1Nc2ccccc2S/C1=C\c1ccccc1C(F)(F)F`, the T/C by setting is: under setting [1], 108 % of control; under setting [2], 106 % of control.

In the case of `CCOC(=O)CC(O)(c1ccc2c(c1)OCO2)c1cc(OC)c(OC)c(OC)c1` (stereo unspecified), the T/C reads like this: (dose: 12.5 mg/kg/injection, schedule: Q01DX005 (ip), vehicle: Klucel (hydroxypropylcellulose) (HPC)) 100 % of control; (dose: 25.0 mg/kg/injection, schedule: Q01DX005 (ip), vehicle: Klucel (hydroxypropylcellulose) (HPC)) 94 % of control; (dose: 50.0 mg/kg/injection, schedule: Q01DX005 (ip), vehicle: Klucel (hydroxypropylcellulose) (HPC)) 94 % of control; (dose: 100.0 mg/kg/injection, schedule: Q01DX005 (ip), vehicle: Klucel (hydroxypropylcellulose) (HPC)) 89 % of control; (dose: 200.0 mg/kg/injection, schedule: Q01DX005 (ip), vehicle: Klucel (hydroxypropylcellulose) (HPC)) 88 % of control.

On to `OCc1ccc(OCc2ccccc2)c(OCc2ccccc2)c1`, for which the T/C was 98 % of control (dose: 50.0 mg/kg/injection, schedule: Q04DX003 (ip), vehicle: saline); 98 % of control (dose: 100.0 mg/kg/injection, schedule: Q04DX003 (ip), vehicle: saline); 104 % of control (dose: 200.0 mg/kg/injection, schedule: Q04DX003 (ip), vehicle: saline); 98 % of control (dose: 400.0 mg/kg/injection, schedule: Q04DX003 (ip), vehicle: saline).

With `CN1C(=O)Cn2c(nn(CCN3CCCC3)c(=O)c2=O)-c2cc(Cl)ccc21`, the T/C under setting [1] was 103 % of control, the T/C under setting [2] is 105 % of control and the T/C under setting [3] is 103 % of control.

For `CCN(CCCO)CCCO`, the T/C is 102 % of control under setting [1], 93 % of control under setting [2] and 95 % of control under setting [3].

As for `Cc1cc2c(cc1C)C(=O)c1cc3c(cc1C2=O)OCO3`, the T/C by setting is: under setting [4], 94 % of control; under setting [5], 91 % of control; under setting [6], 89 % of control.

For the compound `COC(=O)C1=COC(C)C2CN3CCc4c([nH]c5ccccc45)C3CC12` (stereo unspecified), the T/C by setting is: (dose: 50.0 mg/kg/injection, schedule: Q01DX005 (ip), vehicle: saline with Tween-80) 106 % of control; under setting [4], 100 % of control; (dose: 100.0 mg/kg/injection, schedule: Q01DX005 (ip), vehicle: saline with Tween-80) 106 % of control; under setting [5], 93 % of control; (dose: 200.0 mg/kg/injection, schedule: Q01DX005 (ip), vehicle: saline with Tween-80) 100 % of control; under setting [6], 90 % of control.

Regarding `Oc1ccc(C(c2cc3c(cc2O)OCO3)N2CCNCC2)cc1` (stereo unspecified), the T/C is 114 % of control under setting [4], 115 % of control under setting [5] and 113 % of control under setting [6].

Consider `CC(C)CCCC(C)C1CCC2C3CCC4N(CCCl)CCCC4(C)C3CCC12C` (stereo unspecified), for which the T/C runs as follows: (dose: 25.0 mg/kg/injection, schedule: Q01DX001 (ip), vehicle: saline) 100 % of control; (dose: 50.0 mg/kg/injection, schedule: Q01DX001 (ip), vehicle: saline) 99 % of control; (dose: 100.0 mg/kg/injection, schedule: Q01DX001 (ip), vehicle: saline) 94 % of control.

In the case of `CN1c2c(nc(N)[nH]c2=O)NCC1CCNc1ccc(C(=O)NC(CCC(=O)O)C(=O)O)cc1` (stereo unspecified), the T/C runs as follows: (dose: 25.0 mg/kg/injection, schedule: Q01DX009 (ip), vehicle: Klucel (hydroxypropylcellulose) (HPC)) 115 % of control; (dose: 50.0 mg/kg/injection, schedule: Q01DX009 (ip), vehicle: Klucel (hydroxypropylcellulose) (HPC)) 115 % of control; (dose: 75.0 mg/kg/injection, schedule: Q01DX005 (ip), vehicle: saline) 100 % of control; (dose: 75.0 mg/kg/injection, schedule: Q01DX005 (iv), vehicle: saline) 100 % of control; (dose: 75.0 mg/kg/injection, schedule: Q01DX009 (ip), vehicle: saline) 105 % of control; (dose: 75.0 mg/kg/injection, schedule: Q01DX009 (ip), vehicle: sodium bicarbonate) 112 % of control. Moreover, the T/C is, setting by setting: (dose: 100.0 mg/kg/injection, schedule: Q01DX009 (ip), vehicle: Klucel (hydroxypropylcellulose) (HPC)) 124 % of control; under setting [2], 113 % of control; (dose: 150.0 mg/kg/injection, schedule: Q01DX005 (ip), vehicle: saline) 107 % of control; (dose: 150.0 mg/kg/injection, schedule: Q01DX005 (iv), vehicle: saline) 107 % of control; (dose: 150.0 mg/kg/injection, schedule: Q01DX009 (ip), vehicle: saline) 108 % of control; (dose: 150.0 mg/kg/injection, schedule: Q01DX009 (ip), vehicle: sodium bicarbonate) 114 % of control. For the same compound, the T/C (dose: 300.0 mg/kg/injection, schedule: Q01DX005 (ip), vehicle: saline) was 109 % of control and 123 % of control; the T/C (dose: 300.0 mg/kg/injection, schedule: Q01DX005 (iv), vehicle: saline) was 108 % of control and 113 % of control; the T/C (dose: 300.0 mg/kg/injection, schedule: Q01DX009 (ip), vehicle: saline) is 116 % of control; the T/C (dose: 300.0 mg/kg/injection, schedule: Q01DX009 (ip), vehicle: sodium bicarbonate) was 120 % of control; the T/C (dose: 600.0 mg/kg/injection, schedule: Q01DX005 (ip), vehicle: saline) is 107 % of control and 118 % of control; the T/C (dose: 600.0 mg/kg/injection, schedule: Q01DX005 (iv), vehicle: saline) was 104 % of control and 122 % of control. The T/C by setting is: (dose: 600.0 mg/kg/injection, schedule: Q01DX009 (ip), vehicle: saline) 119 % of control; (dose: 600.0 mg/kg/injection, schedule: Q01DX009 (ip), vehicle: sodium bicarbonate) 122 % of control; (dose: 800.0 mg/kg/injection, schedule: Q01DX009 (ip), vehicle: Klucel (hydroxypropylcellulose) (HPC)) 99 % of control.
